Our source for the IC50 values is patent publication US20100197591A1, “4-AMINO-7,8-DIHYDROPYRIDO[4,3-d]PYRIMIDIN-5(6H)-ONE DERIVATIVES” (pfizer Inc, priority 2009, published 2010).

Common to all, as to type: biochemical
For assay [1], the target named is T1, Human full-length diacylglycerol:acylCoA acyltransferase 1 (DGAT-1) (Homo sapiens, UniProt O75907).
T1 construct: Human full-length diacylglycerol:acylCoA acyltransferase 1 (DGAT-1) was expressed in Sf9 insect cells; made in house; host or cells: Sf9 insect cells (baculovirus); crude membrane/microsome fraction
T1 sequence (O75907 1-488): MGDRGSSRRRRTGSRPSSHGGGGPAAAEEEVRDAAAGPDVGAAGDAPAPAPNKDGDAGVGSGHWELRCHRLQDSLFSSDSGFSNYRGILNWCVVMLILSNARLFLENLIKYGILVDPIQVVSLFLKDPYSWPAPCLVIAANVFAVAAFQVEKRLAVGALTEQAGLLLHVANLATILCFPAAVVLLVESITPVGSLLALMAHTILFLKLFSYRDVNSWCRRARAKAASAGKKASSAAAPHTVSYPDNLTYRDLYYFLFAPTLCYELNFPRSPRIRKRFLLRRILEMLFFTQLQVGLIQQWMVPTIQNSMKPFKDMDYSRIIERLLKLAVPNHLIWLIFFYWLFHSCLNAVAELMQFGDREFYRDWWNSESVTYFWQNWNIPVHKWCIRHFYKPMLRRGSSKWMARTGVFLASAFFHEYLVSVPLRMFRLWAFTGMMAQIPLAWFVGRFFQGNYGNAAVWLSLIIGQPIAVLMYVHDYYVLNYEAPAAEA
The experiment in a line: DGAT-1 Reduced Microsome Multidose Assay, G7329F Human IC50. Particulars: crude membrane fraction of Sf9 cells expressing human DGAT-1; [14C]decanoylCoA; apparent IC50, average where tested more than once. In short, it runs like this: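 Sf9-expressed full-length DGAT-1 microsomes (25 or 5 μg/mL) with incorporated 1,2-dioleoyl-sn-glycerol (75 μM), pH 7.5 Hepes, 20 μM [14C]decanoylCoA, 2.5% DMSO, inhibitor pre-incubated. Eight (3 nM–10 μM) or eleven concentrations; 14C product by scintillation gives apparent IC50, averaged over repeats.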

Assay [2] addresses T1, Human full-length diacylglycerol:acylCoA acyltransferase 1 (DGAT-1). The experiment in a line: DGAT-1 Reduced Microsome Multidose Assay, G7829E Human IC50. Particulars: crude membrane fraction of Sf9 cells expressing human DGAT-1; [14C]decanoylCoA; terminated with 5 μl of 1.4% phosphoric acid instead of HCl; average where tested more than once. Here is the method: (§1) Human full-length diacylglycerol:acylCoA acyltransferase 1 (DGAT-1) was expressed in Sf9 insect cells which are then lysed and a crude membrane fraction (105,000×g pellet) was prepared. The DGAT-1 gene is a human DGAT-1 gene described in J Biol Chem 273:26765 (1998) and U.S. Pat. No. 6,100,077.
(§2) In vitro inhibition of DGAT-1 was measured using a modification, further described below, of the assay methodology described in U.S. Pat. No. 6,994,956 B2.
(§3) The cells were cultured as follows. Sf9 cells (20 L) were infected with 4 mL of DGAT-1 Baculovirus Infected Insect Cells (BIIC) for 72 hours in a Wave Bioreactor System 20/50P (Wave Biotec/GE Healthcare).
(§4) Crude DGAT-1 microsomes were prepared as follows. Cell pellets were washed once with ice-cold Dulbecco's phosphate-buffered saline. Cells were collected in tabletop centrifuge (Beckman GS-6KR), 15 minutes, 2000×g, 4° C. Twenty (20) mL of ice-cold Microsome Buffer (MB) was added per 5 g of cell pellet. The suspension was passed through a microfluidizer 3 times (18K psi). The lysate was transferred to centrifuge tubes and centrifuged for 20 minutes at 5000×g (Beckman-Coulter, Inc. Allegra® 64R High-Speed Refrigerated Benchtop Centrifuge, F0650 rotor) at 4° C. The supernatant was transferred to ultracentrifuge tubes and centrifuged at 125,000×g for 1 hour in a Beckman Ti-45 rotor, 4° C. The supernatant fluid was discarded. The pellet was resuspended in 70 mL of MB by sonication. The microsome concentration was determined using Bio-Rad Protein DC Protein Assay. The microsomes were filter sterilized with a 0.22 μm filter. The samples were portioned, flash frozen and stored at −80° C.
(§5) The Microsome Buffer, used for microsome preparation, was prepared by conventional means and contained 125 mM sucrose, 3 mM imidazole, 0.2 μg/mL aprotinin, 0.2 μg/mL leupeptin and 5 mM dithiothreitol (Cleland's reagent), DGAT-1 activity was measured in 384-well format in a total assay volume of 25 μl that contained, Hepes buffer (50 mM, pH 7.5), MgCl2 (10 mM), bovine serum albumin (0.6 mg/ml), [^14C]decanoylCoA (20 μM, 58 Ci/mol) and membranes (25 μg/ml) into which 1,2 dioleoyl-sn-glycerol (75 μM) in acetone has already been incorporated. Inhibitors in DMSO were pre-incubated with membranes before initiating the DGAT-1 reaction by the addition of decanoylCoA. […] The DMSO concentration was 2.5%. The inhibitors were present at a range of eight concentrations to generate an apparent IC50 for each compound. The eight inhibitor concentration employed ranged from 10 μM to 3 nM (from high to low concentration). Specifically, the eight concentrations used were 10 μM, 3 μM, 1 μM, 300 nM, 100 nM, 30 nM, 10 nM and 3 nM.
(§6) Reaction mixtures were neutralized by the addition of 15 μl of tris(hydroxy-methyl)aminomethane (1M, pH 8.0) and then mixed by trituration with 37.5 μl of Microscint™-E (Perkin Elmer). Plates contents were allowed to partition for 15 to 30 min before ^14C was measured in a scintillation spectrometer (Wallac Microbeta Trilux 1450-030 liquid scintillation counter 12 detector in the top-count DPM mode). Percent inhibition of test compounds was computed as […].
Four separate assays were performed using 4 different methods of analysis. The method of analysis of Assay 1 was the same as Assay 4 (described above) except microsomes were utilized at 25 μg/mL instead of 5 μg/mL. The method of analysis of Assay 2 was the same as Assay 4 (described above) except eleven (11) concentrations of inhibitor were employed instead of eight (8). The method of analysis of Assay 3 was the same as Assay 2 except the compounds were serially diluted in a different laboratory.
Where this DGAT-1 inhibition assay was performed on a compound more than once, an average is provided for that compound.

For assay [3] the target is unchanged. The experiment in a line: DGAT-1 Reduced Microsome Multidose Assay, G7329E Human IC50. Particulars: crude membrane fraction of Sf9 cells expressing human DGAT-1; [14C]decanoylCoA; apparent IC50, average where tested more than once. Here is the method:
as §1, §2, §3, §4, §5, §6
Four separate assays were performed using 4 different methods of analysis. The method of analysis of Assay 1 was the same as Assay 4 (described above) except microsomes were utilized at 25 μg/mL instead of 5 μg/mL. […]

Assay [4] has the same target. The experiment in a line: DGAT-1 Reduced Microsome Multidose Assay, G7329B Human IC50. To be noted: crude membrane fraction of Sf9 cells expressing human DGAT-1; [14C]decanoylCoA; apparent IC50, average where tested more than once. Here is the method: as §1, §2, §3
Crude DGAT-1 microsomes were prepared as follows. Cell pellets were washed once with ice-cold Dulbecco's phosphate-buffered saline. Cells were collected in tabletop centrifuge (Beckman GS-6KR), 15 minutes, 2000×g, 4° C. Twenty (20) mL of ice-cold Microsome Buffer (MB) was added per 5 g of cell pellet. The suspension was passed through a microfluidizer 3 times (18K psi). […] The microsome concentration was determined using Bio-Rad Protein DC Protein Assay. […]
The Microsome Buffer, used for microsome preparation, was prepared by conventional means and contained 125 mM sucrose, 3 mM imidazole, 0.2 μg/mL aprotinin, 0.2 μg/mL leupeptin and 5 mM dithiothreitol (Cleland's reagent), DGAT-1 activity was measured in 384-well format in a total assay volume of 25 μl that contained, Hepes buffer (50 mM, pH 7.5), MgCl2 (10 mM), bovine serum albumin (0.6 mg/ml), [^14C]decanoylCoA (20 μM, 58 Ci/mol) and membranes (25 μg/ml) into which 1,2 dioleoyl-sn-glycerol (75 μM) in acetone has already been incorporated. […]
Reaction mixtures were neutralized by the addition of 15 μl of tris(hydroxy-methyl)aminomethane (1M, pH 8.0) and then mixed by trituration with 37.5 μl of Microscint™-E (Perkin Elmer). Plates contents were allowed to partition for 15 to 30 min before ^14C was measured in a scintillation spectrometer (Wallac Microbeta Trilux 1450-030 liquid scintillation counter 12 detector in the top-count DPM mode). […]

For the compound `COc1nc(N)c2c(n1)CCN(c1ccc(C(C)(C)c3ncno3)cc1)C2=O` (single isomer, unassigned) [Example 3L], the IC50 (in general, the midpoint of a concentration-inhibition curve) was 0.0689 µM in assay [1] and 0.0673 µM in assay [2]. The like results for `COc1nc(N)c2c(n1)CCN(c1ccc(C(C)(C)c3ncon3)cc1)C2=O` (single isomer, unassigned) [Example 3M, 4-amino-2-methoxy-6-{4-[1-methyl-1-(1,2,4-oxadiazol-3-yl)ethyl]phenyl}-7,8-dihydropyrido[4,3-d]pyrimidin-5(6H)-one] were, in that order, 0.0778 µM and 0.0552 µM. Turning to `COc1nc(N)c2c(n1)CCN(c1ccc(C(=O)OCC(C)(C)C)cc1)C2=O` [Example 2F, 2,2-dimethylpropyl 4-(4-amino-2-methoxy-5-oxo-7,8-dihydropyrido[4,3-d]pyrimidin-6(5H)-yl)benzoate], the IC50 in assay [1] was found to be 0.112 µM; in assay [2], 0.0551 µM. `COc1nc(N)c2c(n1)CCN(c1ccc(C(C)(C)c3ccno3)cc1)C2=O` [Example 3C, 4-amino-6-[4-(1-isoxazol-5-yl-1-methylethyl)phenyl]-2-methoxy-7,8-dihydropyrido[4,3-d]pyrimidin-5(6H)-one]: the IC50 in assay [2] was 0.0045 µM. Same read-out and setting: next, `COc1nc(N)c2c(n1)CCN(c1ccc(C(C)(C)c3nnnn3C)cc1)C2=O` [Example 3Q, 4-amino-2-methoxy-6-{4-[1-methyl-1-(1-methyl-1H-tetrazol-5-yl)ethyl]phenyl}-7,8-dihydropyrido[4,3-d]pyrimidin-5(6H)-one]: 0.0953 µM; `COc1nc(N)c2c(n1)CCN(c1ccc(C(C)(C)c3nnn(C)n3)cc1)C2=O` [Example 3R, 4-amino-2-methoxy-6-{4-[1-methyl-1-(2-methyl-2H-tetrazol-5-yl)ethyl]phenyl}-7,8-dihydropyrido[4,3-d]pyrimidin-5(6H)-one]: 0.0211 µM; `COc1nc(N)c2c(n1)CCN(c1ccc(C(C)(C)CNC(=O)OC(C)(C)C)cc1)C2=O` [Example 3T, tert-butyl {2-[4-(4-amino-2-methoxy-5-oxo-7,8-dihydropyrido[4,3-d]pyrimidin-6(5H)-yl)phenyl]-2-methylpropyl}carbamate]: 0.0196 µM. In the case of `COc1nc(N)c2c(n1)CCN(c1ccc(C3(C#N)CCC3)cc1)C2=O` [Example 4A, 1-[4-(4-amino-2-methoxy-5-oxo-7,8-dihydropyrido[4,3-d]pyrimidin-6(5H)-yl)phenyl]cyclobutanecarbonitrile], the IC50 in assay [2] was found to be 0.0207 µM. Still for that read-out and setting: the same measure for `COc1nc(N)c2c(n1)CCN(c1ccc(C3(C(N)=O)CCC3)cc1)C2=O` [Example 5A, 1-[4-(4-amino-2-methoxy-5-oxo-7,8-dihydropyrido[4,3-d]pyrimidin-6(5H)-yl)phenyl]cyclobutanecarboxamide]: 0.0786 µM. Still for that read-out and setting: the same measure for `COc1nc(N)c2c(n1)CCN(c1ccc(C3(C(N)=O)CCCCC3)cc1)C2=O` [Example 5B, 1-[4-(4-amino-2-methoxy-5-oxo-7,8-dihydropyrido[4,3-d]pyrimidin-6(5H)-yl)phenyl]cyclohexanecarboxamide]: 0.184 µM; for `COc1nc(N)c2c(n1)CCN(c1ccc(C3(C(N)=O)CCCC3)cc1)C2=O` [Example 5C, 1-[4-(4-amino-2-methoxy-5-oxo-7,8-dihydropyrido[4,3-d]pyrimidin-6(5H)-yl)phenyl]cyclopentanecarboxamide]: 0.217 µM. Turning to `COc1nc(N)c2c(n1)CCN(c1ccc(C(C)(C)C)cc1)C2=O` [Example 6A, 4-amino-6-(4-tert-butylphenyl)-2-methoxy-7,8-dihydropyrido[4,3-d]pyrimidin-5(6H)-one], the IC50 in assay [1] turned out to be 0.00888 µM; in assay [3], 0.049 µM.

Take `COc1nc(N)c2c(n1)CCN(c1ccc(C(C)C)cc1)C2=O` [Example 6E, 4-amino-6-(4-isopropylphenyl)-2-methoxy-7,8-dihydropyrido[4,3-d]pyrimidin-5(6-H)-one]: the figures for the IC50 in assay [1] and in assay [3] were 0.0171 µM and 0.0585 µM, respectively.

Regarding `COc1nc(N)c2c(n1)CCN(c1ccc([C@H]3CC[C@H](CC#N)CC3)cc1)C2=O` [Example 7C, {trans-4-[4-(4-amino-2-methoxy-5-oxo-7,8-dihydropyrido[4,3-d]pyrimidin-6(5H)-yl)phenyl]cyclohexyl}acetonitrile], the IC50 in assay [1] was 0.0325 µM; in assay [3], 0.133 µM.

Consider `COc1nc(N)c2c(n1)CCN(c1ccc(I)cc1)C2=O` [Example 9E, 4-amino-6-(4-iodophenyl)-2-methoxy-7,8-dihydropyrido[4,3-d]pyrimidin-5(6H)-one], for which the IC50 in assay [3] stood at 0.124 µM. `COc1nc(N)c2c(n1)CCN(c1ccc3c(c1)CC(C)(C)O3)C2=O` [Example 9M, 4-amino-6-(2,2-dimethyl-2,3-dihydro-1-benzofuran-5-yl)-2-methoxy-7,8-dihydropyrido[4,3-d]pyrimidin-5(6H)-one] displayed an IC50 in assay [2] of 1.38 µM. In the case of `Cc1nc(N)c2c(n1)CCN(c1ccc(I)cc1)C2=O` [Example 9Q, 4-amino-6-(4-iodophenyl)-2-methyl-7,8-dihydropyrido[4,3-d]pyrimidin-5(6H)-one], the IC50 in assay [4] came out at 5.03 µM; in assay [3] it was 13.7 µM. On to `Cc1nc(N)c2c(n1)CCN(c1ccc(C3CCC(CCO)CC3)cc1)C2=O` (centres unmarked) [Example 9R, 4-amino-6-{4-[4-(2-hydroxyethyl)cyclohexyl]phenyl}-2-methyl-7,8-dihydropyrido[4,3-d]pyrimidin-5(6H)-one], for which the IC50 in assay [4] is 1.03 µM. Same read-out and setting: the same measure for `Cc1nc(N)c2c(n1)CCN(c1ccc(C3CCC(CC#N)CC3)cc1)C2=O` (centres unmarked) [Example 9T, {4-[4-(4-amino-2-methyl-5-oxo-7,8-dihydropyrido[4,3-d]pyrimidin-6(5H)-yl)phenyl]cyclohexyl}acetonitrile]: 1.89 µM.
